Results taken from paper PMC11230868, “eIF2β zinc-binding domain interacts with the eIF2γ subunit through the guanine nucleotide binding interface to promote Met-tRNAi^Met binding” (Bioscience Reports, 2024).

How the values were obtained:
eIF2 complex (eIF2αβγ) = target: T1, eIF2 complex (eIF2αβγ) (Saccharomyces cerevisiae, UniProt P32481); assay: fluorescence anisotropy titration of protein; assay type: binding; settings: labelled compound at 100 nM; pH 7.5, 110 mM K acetate, 2.5 mM Mg acetate, 26 °C; Hill fit n = 1
T1 construct: gene GCD11; full-length heterotrimer, 8xHis tag on N-terminus of eIF2γ (GCD11), overexpressed from pRS425_GCD11, SUI3, SUI2 in yeast YP920 (sui2Δ sui3Δ gcd11Δ); Ni-NTA, heparin and cation exchange; with Eukaryotic translation initiation factor 2 subunit alpha
T1 sequence (P32481 whole entry, one chain of several): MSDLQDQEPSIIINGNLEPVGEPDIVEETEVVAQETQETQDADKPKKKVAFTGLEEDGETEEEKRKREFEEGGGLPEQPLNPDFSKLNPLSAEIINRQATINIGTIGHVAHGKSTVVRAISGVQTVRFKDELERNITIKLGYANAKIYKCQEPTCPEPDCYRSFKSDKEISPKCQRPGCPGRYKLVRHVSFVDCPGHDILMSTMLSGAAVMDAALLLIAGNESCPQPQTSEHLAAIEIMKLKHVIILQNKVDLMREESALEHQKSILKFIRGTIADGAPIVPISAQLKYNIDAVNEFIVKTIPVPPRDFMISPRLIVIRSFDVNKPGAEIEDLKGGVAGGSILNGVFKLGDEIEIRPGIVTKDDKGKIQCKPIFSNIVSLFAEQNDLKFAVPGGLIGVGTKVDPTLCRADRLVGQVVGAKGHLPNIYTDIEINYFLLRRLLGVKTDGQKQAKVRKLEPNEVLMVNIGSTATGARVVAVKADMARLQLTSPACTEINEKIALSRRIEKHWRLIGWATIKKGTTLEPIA
T1 sequence (P09064 whole entry partner, one chain of several): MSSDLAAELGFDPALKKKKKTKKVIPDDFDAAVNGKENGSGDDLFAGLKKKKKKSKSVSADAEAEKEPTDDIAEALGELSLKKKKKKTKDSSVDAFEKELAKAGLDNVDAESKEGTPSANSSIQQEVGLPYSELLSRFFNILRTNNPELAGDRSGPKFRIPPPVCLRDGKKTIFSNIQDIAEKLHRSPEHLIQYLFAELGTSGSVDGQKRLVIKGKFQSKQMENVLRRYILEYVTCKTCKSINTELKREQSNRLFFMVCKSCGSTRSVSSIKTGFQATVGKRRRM

[1] = target: T2, 3xHA-tagged eIF2β T238A mutant (yeast, UniProt P09064 1-285, T238A); assay: co-IP; Co-IP of the 3xHA-tagged eIF2β subunit from yeast extract (Supplementary Figure S1); settings: partners not purified
T2 construct: eIF2β, yeast SUI3 ORF + terminator with T238A, cloned behind SUI3 promoter + 3xHA; also called 3xHA-SUI3-T238A; source: yeast, single-copy plasmid, in whole-cell extract; not shown: 3xHA, N-terminal, kept
T2 sequence (looked up): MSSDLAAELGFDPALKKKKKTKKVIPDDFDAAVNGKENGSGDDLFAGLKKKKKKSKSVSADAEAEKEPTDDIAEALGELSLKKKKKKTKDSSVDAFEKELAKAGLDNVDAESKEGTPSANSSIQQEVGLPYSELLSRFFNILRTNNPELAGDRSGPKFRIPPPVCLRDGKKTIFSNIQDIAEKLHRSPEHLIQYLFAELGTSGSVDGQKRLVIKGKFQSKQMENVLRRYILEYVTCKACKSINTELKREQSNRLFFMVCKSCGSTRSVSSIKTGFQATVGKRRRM

[2] = target: T3, N-terminal 3xHA-tagged eIF2γ (wild type) (yeast, UniProt P32481 1-527); assay: co-IP; 3xHA-eIF2γ precipitated with anti-HA agarose beads from 300 μg yeast WCE (YP912), 4°C, 1 h; 20 mM HEPES pH 7.5, 100 mM KCl, 5 mM MgCl2, 5 mM NaF, 1 mM EDTA, 0.2% NP-40, 1% BSA; Western blot, bands normalised to the anti-HA band; settings: partners not purified
T3 construct: eIF2γ, yeast GCD11; GCD11 ORF + terminator cloned behind GCD11 promoter + 3xHA; also called 3xHA eIF2γ; eIF2γ^WT; source: yeast strain YP912 (gcd11Δ, sui3Δ), single-copy plasmid, in whole-cell extract; not shown: 3xHA, N-terminal, kept
T3 sequence (P32481 whole entry): as the sequence (P32481 whole entry, one chain of several) above

## GDP-BODIPY
eIF2 complex (eIF2αβγ)
  Kd: 36.7 nM

## GDPγS-BODIPY
eIF2 complex (eIF2αβγ)
  Kd: 1400 nM

B1: eIF2α subunit (natural protein, yeast, UniProt P20459 1-304, looked up)
chain: MSTSHCRFYENKYPEIDDIVMVNVQQIAEMGAYVKLLEYDNIEGMILLSELSRRRIRSIQKLIRVGKNDVAVVLRVDKEKGYIDLSKRRVSSEDIIKCEEKYQKSKTVHSILRYCAEKFQIPLEELYKTIAWPLSRKFGHAYEAFKLSIIDETVWEGIEPPSKDVLDELKNYISKRLTPQAVKIRADVEVSCFSYEGIDAIKDALKSAEDMSTEQMQVKVKLVAAPLYVLTTQALDKQKGIEQLESAIEKITEVITKYGGVCNITMPPKAVTATEDAELQALLESKELDNRSDSEDDEDESDDE
notes: eIF2α, yeast SUI2; chromosomal gene in the co-IP strains, whole SUI2 gene on pRS425 for the purified complex; also called SUI2; source: endogenous, yeast whole-cell extract (YP912); yeast YP920, high-copy pRS425 plasmid, co-purified in the 8xHis-eIF2 complex
[1]
  fold change of binding against the 3xHA-eIF2β wild type: 1.3 fold
[2]
  fold change of binding in the eIF2β^T238A strain against the eIF2β^WT strain: ~4.5 fold
